Laboratory results: PubChem BioAssay AID2060610 (Molecular Pharmacology Branch, DTP, NCI, 2025)
pIC50: −log10 of the molar value.

Test system: 616215-338-R-J1-PDC complex spheroids, viability % test/control
Experiment: Anticancer human tumor 616215-338-R-J1-PDC patient-derived colon adenocarcinoma cell line growth inhibition [CLK]
Conditions: for pIC50: curve of first compound; for viability, T/C: stronger effect = lower value
Summary of the method: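 Patient-derived tumor cells grown as complex spheroids with HUVEC endothelial cells and mesenchymal stem cells, treated with drug combinations. Concentrations descend in half-log steps from near clinical Cmax, or from 10 microM if Cmax unknown.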

[1] = second compound 0.0316 µM, first compound 0.0316 µM
[2] = second compound 0.0316 µM, first compound 0.1 µM
[3] = second compound 0.0316 µM, first compound 0.316 µM
[4] = second compound 0.0316 µM, first compound 1 µM
[5] = second compound 0.0316 µM, first compound 3.16 µM
[6] = second compound 0.0316 µM, first compound 10 µM
[7] = second compound 0.1 µM, first compound 0.0316 µM
[8] = second compound 0.1 µM, first compound 0.1 µM
[9] = second compound 0.1 µM, first compound 0.316 µM
[10] = second compound 0.1 µM, first compound 1 µM
[11] = second compound 0.1 µM, first compound 3.16 µM
[12] = second compound 0.1 µM, first compound 10 µM
[13] = second compound 0.316 µM, first compound 0.0316 µM
[14] = second compound 0.316 µM, first compound 0.1 µM
[15] = second compound 0.316 µM, first compound 0.316 µM
[16] = second compound 0.316 µM, first compound 1 µM
[17] = second compound 0.316 µM, first compound 3.16 µM
[18] = second compound 0.316 µM, first compound 10 µM
[19] = second compound 1 µM, first compound 0.0316 µM
[20] = second compound 1 µM, first compound 0.1 µM
[21] = second compound 1 µM, first compound 0.316 µM
[22] = second compound 1 µM, first compound 1 µM
[23] = second compound 1 µM, first compound 3.16 µM
[24] = second compound 1 µM, first compound 10 µM
[25] = second compound 3.16 µM, first compound 0.0316 µM
[26] = second compound 3.16 µM, first compound 0.1 µM
[27] = second compound 3.16 µM, first compound 0.316 µM
[28] = second compound 3.16 µM, first compound 1 µM
[29] = second compound 3.16 µM, first compound 3.16 µM
[30] = second compound 3.16 µM, first compound 10 µM
[31] = second compound 10 µM, first compound 0.0316 µM
[32] = second compound 10 µM, first compound 0.1 µM
[33] = second compound 10 µM, first compound 0.316 µM
[34] = second compound 10 µM, first compound 1 µM
[35] = second compound 10 µM, first compound 3.16 µM
[36] = second compound 10 µM, first compound 10 µM
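Further: spheroids exposed to agents for 7 days.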
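Wherever viability, T/C is given: 100% = DMSO vehicle wells.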

Q: With C=C(F)C(=O)N1CCN(c2nc(OCC3CCCN3C)nc3c2CCN(c2cccc4cccc(Cl)c24)C3)CC1CC#N (stereo unspecified) + CNC(=O)c1ccc(Nc2nc(OC3CCCC3)c3c(-c4ccc5nc(C)oc5c4)c[nH]c3n2)c(OC)c1 as the molecule, how does the pIC50 (second compound 0.0316 µM) read?
A: 5.24

Q: What about the pIC50 (second compound 0.1 µM) of the same molecule?
A: > 7.50

Q: What about the pIC50 (second compound 0.316 µM) of the same molecule?
A: > 7.50

Q: And the pIC50 (second compound 1 µM)?
A: > 7.50

Q: What about the pIC50 (second compound 3.16 µM) of the same molecule?
A: > 7.50

Q: And the pIC50 (second compound 10 µM)?
A: > 7.50

Q: What about the viability, T/C [1] of the same molecule?
A: 95.2%

Q: What about the viability, T/C [2] of the same molecule?
A: 96.9%

Q: And the viability, T/C [3]?
A: 90.9%

Q: And the viability, T/C [4]?
A: 104%

Q: What about the viability, T/C [5] of the same molecule?
A: 106%

Q: And the viability, T/C [6]?
A: 5.6%

Q: What about the viability, T/C [7] of the same molecule?
A: 46%

Q: What about the viability, T/C [8] of the same molecule?
A: 38.4%

Q: And the viability, T/C [9]?
A: 47.9%

Q: And the viability, T/C [10]?
A: 46.2%

Q: What about the viability, T/C [11] of the same molecule?
A: 44.9%

Q: What about the viability, T/C [12] of the same molecule?
A: 1.3%

Q: What about the viability, T/C [13] of the same molecule?
A: 48.4%

Q: And the viability, T/C [14]?
A: 45.2%

Q: And the viability, T/C [15]?
A: 46.6%

Q: What about the viability, T/C [16] of the same molecule?
A: 40.4%

Q: And the viability, T/C [17]?
A: 42.1%

Q: What about the viability, T/C [18] of the same molecule?
A: 1.18%

Q: And the viability, T/C [19]?
A: 49.8%

Q: What about the viability, T/C [20] of the same molecule?
A: 50.5%

Q: And the viability, T/C [21]?
A: 47.5%

Q: What about the viability, T/C [22] of the same molecule?
A: 42.1%

Q: What about the viability, T/C [23] of the same molecule?
A: 30.7%

Q: And the viability, T/C [24]?
A: 0.72%

Q: And the viability, T/C [25]?
A: 42.7%

Q: What about the viability, T/C [26] of the same molecule?
A: 49.1%

Q: And the viability, T/C [27]?
A: 41.2%

Q: And the viability, T/C [28]?
A: 31.5%

Q: What about the viability, T/C [29] of the same molecule?
A: 20.8%

Q: And the viability, T/C [30]?
A: 0.22%

Q: And the viability, T/C [31]?
A: 45.3%

Q: What about the viability, T/C [32] of the same molecule?
A: 43%

Q: What about the viability, T/C [33] of the same molecule?
A: 42.8%

Q: What about the viability, T/C [34] of the same molecule?
A: 33.2%

Q: What about the viability, T/C [35] of the same molecule?
A: 16.4%

Q: And the viability, T/C [36]?
A: 0.29%

Q: Which viability, T/C (compound 0.0316 µM) does the source give for CN1CCN(c2cc(C(=O)Nc3cc4cc(-c5cnn(C)c5)ccc4cn3)ccn2)CC1 here?
A: 99.7% [middle of 12 runs]

Q: And the viability, T/C (compound 0.1 µM)?
A: 107% [middle of 12 runs]

Q: And the viability, T/C (compound 0.316 µM)?
A: 34.7% [middle of 12 runs]

Q: And the viability, T/C (compound 1 µM)?
A: 1.63% [middle of 11 runs]

Q: What about the viability, T/C (compound 3.16 µM) of the same molecule?
A: 1% [middle of 11 runs]

Q: And the viability, T/C (compound 10 µM)?
A: 0.25% [middle of 10 runs]

Q: And the IC50 (compound alone, run of 07/31/2023)?
A: 238 nM [middle of 11 runs]

Q: How did the pIC50 (second compound 0.0316 µM) turn out when CC1COCCN1c1cc(C2(S(C)(=N)=O)CC2)nc(-c2ccnc3[nH]ccc23)n1 (stereo unspecified) + CN1CCN(c2cc(C(=O)Nc3cc4cc(-c5cnn(C)c5)ccc4cn3)ccn2)CC1 was run?
A: < 5.00

Q: What about the pIC50 (second compound 0.1 µM) of the same molecule?
A: 5.30

Q: And the pIC50 (second compound 0.316 µM)?
A: > 7.50

Q: And the pIC50 (second compound 1 µM)?
A: > 7.50

Q: What about the pIC50 (second compound 3.16 µM) of the same molecule?
A: > 7.50

Q: What about the pIC50 (second compound 10 µM) of the same molecule?
A: > 7.50

Q: And the viability, T/C [1]?
A: 98.6%

Q: And the viability, T/C [2]?
A: 99.8%

Q: What about the viability, T/C [3] of the same molecule?
A: 95.3%

Q: What about the viability, T/C [4] of the same molecule?
A: 105%

Q: And the viability, T/C [5]?
A: 102%

Q: What about the viability, T/C [6] of the same molecule?
A: 54.7%

Q: And the viability, T/C [7]?
A: 117%

Q: What about the viability, T/C [8] of the same molecule?
A: 106%

Q: What about the viability, T/C [9] of the same molecule?
A: 96.6%

Q: And the viability, T/C [10]?
A: 102%

Q: And the viability, T/C [11]?
A: 60.5%

Q: And the viability, T/C [12]?
A: 33.5%

Q: And the viability, T/C [13]?
A: 34.7%

Q: And the viability, T/C [14]?
A: 29.4%

Q: What about the viability, T/C [15] of the same molecule?
A: 28.4%

Q: And the viability, T/C [16]?
A: 21.3%

Q: And the viability, T/C [17]?
A: 23.9%

Q: And the viability, T/C [18]?
A: 15.4%

Q: And the viability, T/C [19]?
A: 0.14%

Q: What about the viability, T/C [20] of the same molecule?
A: 2.28%

Q: What about the viability, T/C [21] of the same molecule?
A: 2.21%

Q: And the viability, T/C [22]?
A: 0.15%

Q: What about the viability, T/C [23] of the same molecule?
A: 0.1%

Q: And the viability, T/C [24]?
A: 2.62%

Q: And the viability, T/C [25]?
A: 0.14%

Q: What about the viability, T/C [26] of the same molecule?
A: 0.12%

Q: What about the viability, T/C [27] of the same molecule?
A: 0.15%

Q: What about the viability, T/C [28] of the same molecule?
A: 0.14%

Q: What about the viability, T/C [29] of the same molecule?
A: 2.05%

Q: What about the viability, T/C [30] of the same molecule?
A: 3.08%

Q: And the viability, T/C [31]?
A: 0.16%

Q: And the viability, T/C [32]?
A: 0.15%

Q: What about the viability, T/C [33] of the same molecule?
A: 0.21%

Q: What about the viability, T/C [34] of the same molecule?
A: 0.23%

Q: And the viability, T/C [35]?
A: 0.23%

Q: And the viability, T/C [36]?
A: 0.24%
